Assay results: paper PMC7506137, “Selective Phosphodiesterase 1 Inhibitor BTTQ Reduces Blood Pressure in Spontaneously Hypertensive and Dahl Salt Sensitive Rats: Role of Peripheral Vasodilation” (Frontiers in Physiology, 2020)

System: Spontaneous Hypertensive rats (SHR)
Assay: Rat telemetry, blood pressure and heart rate
Type: in vivo
Details: 3 mg/kg enalapril alone, twice daily oral, SHR
From the text: Male Sprague Dawley (Taconic Biosciences) rats, Spontaneous Hypertensive rats (Charles River Laboratories, United States), and Dahl Salt Sensitive rats (Medical College of Wisconsin) were implanted with transmitters (HD S10; Data Science International) for collection of BP and heart rate (HR) data. The transmitters are capable of transmitting a BP signal via a pressure catheter inserted into the abdominal aorta. Initially, a baseline was established and recorded. Each rat was then removed from its recording cage and was dosed by p.o. gavage with vehicle or compound and the animals were then returned to the recording cage. Data sampling for BP and HR was carried out in intervals at selected time points for the duration of the experiment.
All data in this manuscript were presented as mean ± SEM with a significance level of p < 0.05, and n represents the number of individual animals. The significance of differences in concentration-response curves in the ear temperature and, myograft study were calculated using t-test, compare to the vehicle group. The EC50 was calculated using GraphPad Prism 8.3 using a 4-parameter logistic non-linear curve fit model. Single-dose rat telemetry data for normal and SHR rats and repeat-dose telemetry data in Dahls salt-sensitive rats were analyzed by two-way repeated measures ANOVA. Treatment group main effects were compared by Tukey’s HSD method. All telemetry data were analyzed with GraphPad Prism 8.3.

CCOC(=O)[C@H](CCc1ccccc1)N[C@@H](C)C(=O)N1CCC[C@H]1C(=O)O [enalapril, reference compound] was tested, and the heart rate was “without affecting the heart rate” and the “lowering of MAP” value was 13%.
